Here are results for twelve compounds from patent publication US20260022142A1, “MACROCYCLIC IMMUNOMODULATORS” (Bristol-Myers Squibb Company, priority 2022, published 2026).

Structures are written as SMILES. pIC50: −log10 of the molar value. Bridge positions count the residues as written; N and C are the ends. Square brackets hold non-standard residues; d marks the D form. Peptide text beside a SMILES is read from it. * marks the point of attachment. ξ: configuration not given here. Bip = N[C@@H](Cc1ccc(-c2ccccc2)cc1)C(=O)O; Phe(3-Me) = Cc1cccc(C[C@H](N)C(=O)O)c1; Val(3-OH) = CC(C)(O)[C@H](N)C(=O)O; Cha = N[C@@H](CC1CCCCC1)C(=O)O; Thr(3ξ) = CC(O)[C@H](N)C(=O)O; NMeNle = CCCC[C@H](NC)C(=O)O; 12Ado = NCCCCCCCCCCCC(=O)O; Carboxymethyl = O=C(O)C*; Orn = NCCC[C@H](N)C(=O)O; Aun = NCCCCCCCCCCC(=O)O; Dab = NCC[C@H](N)C(=O)O

The target of this assay is T1, PD-1/PD-L1 interaction (PE-labeled human PD-L1-Ig binding to Jurkat cell line over-expressing human PD-1) (Homo sapiens, UniProt Q15116).
T1 construct: expressed in transfected cells; host or cells: Jurkat
T1 sequence (Q15116 25-288): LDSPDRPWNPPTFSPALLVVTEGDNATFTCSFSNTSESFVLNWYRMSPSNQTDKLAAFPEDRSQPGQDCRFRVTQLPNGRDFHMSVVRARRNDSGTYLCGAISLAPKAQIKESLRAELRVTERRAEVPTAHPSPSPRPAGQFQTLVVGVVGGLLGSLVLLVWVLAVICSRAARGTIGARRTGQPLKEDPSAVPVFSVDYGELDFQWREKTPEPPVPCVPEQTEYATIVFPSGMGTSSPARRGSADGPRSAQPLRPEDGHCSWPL
Nature of the assay: Jurkat-PD-1 Cell Binding High-Content Screening Assay (CBA). The format is cell-based. Conditions: Jurkat cell line over-expressing human PD-1; PE-labeled PD-L1-Ig 20 nM final; read-out: Jurkat hPD1-PDL1 IC50. In a few lines:
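Jurkat cells stably over-expressing human PD-1 were seeded in DMEM with 10% fetal calf serum and pre-incubated with compound for 2 h at 37° C. PE-labeled human PD-L1-Ig was then added at 20 nM final for 1 hour, after which cells were fixed with paraformaldehyde, Hoechst-stained and imaged by high-content microscopy.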
What is called pIC50 is the negative decadic logarithm of the IC50, by convention in mol/L. Turning to `Cc1cccc(C[C@@H]2NC(=O)[C@H](CC(=O)O)NC(=O)[C@H](Cc3ccc(OCC(=O)O)cc3)NC(=O)[C@H](CCN)NC(=O)CSC[C@@H](C(=O)N[C@@H](CCN)C(=O)NCCCCCCCCCCC(=O)O)NC(=O)[C@H](CO)NC(=O)[C@H](CCCCN)NC(=O)[C@H](CC3CCCCC3)NC(=O)[C@H](CCN)NC(=O)[C@@H](CC(C)C)NC(=O)[C@H](CCCN)NC(=O)[C@H](Cc3ccc(OCC(=O)O)cc3)NC(=O)[C@H](Cc3ccc(-c4ccccc4)cc3)NC(=O)[C@H](Cc3ccc(OCC(=O)O)cc3)NC2=O)c1` [Compound 3631] ({CH2CO}-[Dab]Y(Carboxymethyl)D[Phe(3-Me)]Y(Carboxymethyl)[Bip]Y(Carboxymethyl)[Orn][dL][Dab][Cha]KSC[Dab][Aun]-OH; thioether N-14), the pIC50 was 7.80.
For the compound `Cc1cccc(C[C@@H]2NC(=O)[C@H](CC(=O)O)NC(=O)[C@H](Cc3ccc(OCC(=O)O)cc3)NC(=O)[C@H](CCN)NC(=O)CSC[C@@H](C(=O)N[C@@H](CCN)C(=O)NCCCCCCCCCCC(=O)O)NC(=O)[C@H](CO)NC(=O)[C@H](Cc3cnc[nH]3)NC(=O)[C@H](CC3CCCCC3)NC(=O)[C@H](CCN)NC(=O)[C@@H](CC(C)C)NC(=O)[C@H](CCCN)NC(=O)[C@H](Cc3ccc(OCC(=O)O)cc3)NC(=O)[C@H](Cc3ccc(-c4ccccc4)cc3)NC(=O)[C@H](Cc3ccc(OCC(=O)O)cc3)NC2=O)c1` [Compound 3632] ({CH2CO}-[Dab]Y(Carboxymethyl)D[Phe(3-Me)]Y(Carboxymethyl)[Bip]Y(Carboxymethyl)[Orn][dL][Dab][Cha]HSC[Dab][Aun]-OH; thioether N-14), the pIC50 was 8.06.
Take `Cc1cccc(C[C@@H]2NC(=O)[C@H](CC(=O)O)NC(=O)[C@H](Cc3ccc(OCC(=O)O)cc3)NC(=O)[C@H](CCN)NC(=O)CSC[C@@H](C(=O)N[C@@H](CCN)C(=O)NCCCCCCCCCCC(=O)O)NC(=O)[C@H](Cc3cnc[nH]3)NC(=O)[C@H](C(C)O)NC(=O)[C@H](CC3CCCCC3)NC(=O)[C@H](CCN)NC(=O)[C@@H](CC(C)C)NC(=O)[C@H](CCCN)NC(=O)[C@H](Cc3ccc(OCC(=O)O)cc3)NC(=O)[C@H](Cc3ccc(-c4ccccc4)cc3)NC(=O)[C@H](Cc3ccc(OCC(=O)O)cc3)NC2=O)c1` (stereo partly drawn) [Compound 3633] ({CH2CO}-[Dab]Y(Carboxymethyl)D[Phe(3-Me)]Y(Carboxymethyl)[Bip]Y(Carboxymethyl)[Orn][dL][Dab][Cha][Thr(3ξ)]HC[Dab][Aun]-OH; thioether N-14): the pIC50 is 8.07.
As for `Cc1cccc(C[C@@H]2NC(=O)[C@H](CC(=O)O)NC(=O)[C@H](Cc3ccc(OCC(=O)O)cc3)NC(=O)[C@H](CCN)NC(=O)CSC[C@@H](C(=O)N[C@@H](CCN)C(=O)NCCCCCCCCCCC(=O)O)NC(=O)[C@H](CCCN)NC(=O)[C@H](C(C)(C)O)NC(=O)[C@H](CC3CCCCC3)NC(=O)[C@H](CCN)NC(=O)[C@@H](CC(C)C)NC(=O)[C@H](CCCN)NC(=O)[C@H](Cc3ccc(OCC(=O)O)cc3)NC(=O)[C@H](Cc3ccc(-c4ccccc4)cc3)NC(=O)[C@H](Cc3ccc(OCC(=O)O)cc3)NC2=O)c1` [Compound 3634] ({CH2CO}-[Dab]Y(Carboxymethyl)D[Phe(3-Me)]Y(Carboxymethyl)[Bip]Y(Carboxymethyl)[Orn][dL][Dab][Cha][Val(3-OH)][Orn]C[Dab][Aun]-OH; thioether N-14), the pIC50 is 8.20.
Regarding `CCCC[C@H]1C(=O)N[C@@H](Cc2ccc(OCC(=O)O)cc2)C(=O)N[C@@H](CC(=O)O)C(=O)N[C@@H](Cc2cccc(C)c2)C(=O)N[C@@H](Cc2ccc(OCC(=O)O)cc2)C(=O)N[C@@H](Cc2ccc(-c3ccccc3)cc2)C(=O)N[C@@H](Cc2ccc(OCC(=O)O)cc2)C(=O)N[C@@H](CCCN)C(=O)N[C@H](CC(C)C)C(=O)N[C@@H](CCN)C(=O)N[C@@H](CC2CCCCC2)C(=O)N[C@@H](C(C)(C)O)C(=O)N[C@@H](CO)C(=O)N[C@H](C(=O)N[C@@H](CCN)C(=O)NCCCCCCCCCCC(=O)O)CSCC(=O)N1C` [Compound 3635] ({CH2CO}-[NMeNle]Y(Carboxymethyl)D[Phe(3-Me)]Y(Carboxymethyl)[Bip]Y(Carboxymethyl)[Orn][dL][Dab][Cha][Val(3-OH)]SC[Dab][Aun]-OH; thioether N-14), the pIC50 was 7.46.
The result for `Cc1cccc(C[C@@H]2NC(=O)[C@H](CC(=O)O)NC(=O)[C@H](Cc3ccc(OCC(=O)O)cc3)NC(=O)[C@H](CCN)NC(=O)CSC[C@@H](C(=O)N[C@@H](CCN)C(=O)N[C@@H](CO)C(=O)NCCCCCCCCCCCC(=O)O)NC(=O)[C@H](CCCN)NC(=O)[C@H](C(C)O)NC(=O)[C@H](CC3CCCCC3)NC(=O)[C@H](CCN)NC(=O)[C@@H](CC(C)C)NC(=O)[C@H](CCCN)NC(=O)[C@H](Cc3ccc(OCC(=O)O)cc3)NC(=O)[C@H](Cc3ccc(-c4ccccc4)cc3)NC(=O)[C@H](Cc3ccc(OCC(=O)O)cc3)NC2=O)c1` (stereo partly drawn) [Compound 3636] ({CH2CO}-[Dab]Y(Carboxymethyl)D[Phe(3-Me)]Y(Carboxymethyl)[Bip]Y(Carboxymethyl)[Orn][dL][Dab][Cha][Thr(3ξ)][Orn]C[Dab]S[12Ado]-OH; thioether N-14) reads 7.68.
The result for `CC(=O)NCCCC[C@@H]1NC(=O)[C@H](Cc2ccc(-c3ccccc3)cc2)NC(=O)[C@H](Cc2ccc(O)cc2)NC(=O)[C@H](Cc2cccc(C)c2)NC(=O)[C@H](CC(=O)O)NC(=O)[C@H](Cc2ccc(OCC(=O)O)cc2)NC(=O)[C@H](CCN)NC(=O)CSC[C@@H](C(=O)N[C@@H](CCN)C(=O)N[C@@H](CO)C(=O)NCCCCCCCCCCCC(=O)O)NC(=O)[C@H](CCCCN)NC(=O)[C@H](C(C)O)NC(=O)[C@H](CC2CCCCC2)NC(=O)[C@H](CCN)NC(=O)[C@@H](CC(C)C)NC(=O)[C@H](CCCN)NC1=O` (stereo partly drawn) [Compound 3637] ({CH2CO}-[Dab]Y(Carboxymethyl)D[Phe(3-Me)]Y[Bip]K(Ac)[Orn][dL][Dab][Cha][Thr(3ξ)]KC[Dab]S[12Ado]-OH; thioether N-14) reads 7.54.
`CC(=O)NCCCC[C@@H]1NC(=O)[C@H](Cc2ccc(-c3ccccc3)cc2)NC(=O)[C@H](Cc2ccc(O)cc2)NC(=O)[C@H](Cc2cccc(C)c2)NC(=O)[C@H](CC(=O)O)NC(=O)[C@H](Cc2ccc(OCC(=O)O)cc2)NC(=O)[C@H](CCN)NC(=O)CSC[C@@H](C(=O)N[C@@H](CCCN)C(=O)N[C@@H](CO)C(=O)NCCCCCCCCCCC(=O)O)NC(=O)[C@H](CCC(=O)O)NC(=O)[C@H](C(C)O)NC(=O)[C@H](CC2CCCCC2)NC(=O)[C@H](CCN)NC(=O)[C@@H](CC(C)C)NC(=O)[C@H](CCCN)NC1=O` (stereo partly drawn) [Compound 3638] ({CH2CO}-[Dab]Y(Carboxymethyl)D[Phe(3-Me)]Y[Bip]K(Ac)[Orn][dL][Dab][Cha][Thr(3ξ)]EC[Orn]S[Aun]-OH; thioether N-14): the negative logarithm of the IC50 (pIC50) is 7.15.
The result for `Cc1cccc(C[C@@H]2NC(=O)[C@H](CC(=O)O)NC(=O)[C@H](Cc3ccc(OCC(=O)O)cc3)NC(=O)[C@H](CC(N)=O)NC(=O)CSC[C@@H](C(=O)N[C@@H](CCN)C(=O)NCCCCCCCCCCC(=O)O)NC(=O)[C@H](CO)NC(=O)[C@H](C(C)O)NC(=O)[C@H](CC3CCCCC3)NC(=O)[C@H](CCN)NC(=O)[C@@H](CC(C)C)NC(=O)[C@H](CCCN)NC(=O)[C@H](Cc3ccc(OCC(=O)O)cc3)NC(=O)[C@H](Cc3ccc(-c4ccccc4)cc3)NC(=O)[C@H](Cc3ccc(OCC(=O)O)cc3)NC2=O)c1` (stereo partly drawn) [Compound 3639] ({CH2CO}-NY(Carboxymethyl)D[Phe(3-Me)]Y(Carboxymethyl)[Bip]Y(Carboxymethyl)[Orn][dL][Dab][Cha][Thr(3ξ)]SC[Dab][Aun]-OH; thioether N-14) reads 7.98; that for `Cc1cccc(C[C@@H]2NC(=O)[C@H](CC(=O)O)NC(=O)[C@H](Cc3ccc(O)cc3)NC(=O)[C@@H](CCCNC(=N)N)NC(=O)CSC[C@@H](C(=O)N[C@@H](CCN)C(=O)NCCCCCCCCCCC(=O)O)NC(=O)[C@H](CO)NC(=O)[C@H](C(C)(C)O)NC(=O)[C@H](CC3CCCCC3)NC(=O)[C@H](CCN)NC(=O)[C@@H](CC(C)C)NC(=O)[C@H](CCCN)NC(=O)[C@H](Cc3ccc(OCC(=O)O)cc3)NC(=O)[C@H](Cc3ccc(-c4ccccc4)cc3)NC(=O)[C@H](Cc3ccc(OCC(=O)O)cc3)NC2=O)c1` [Compound 3640] ({CH2CO}-[dR]YD[Phe(3-Me)]Y(Carboxymethyl)[Bip]Y(Carboxymethyl)[Orn][dL][Dab][Cha][Val(3-OH)]SC[Dab][Aun]-OH; thioether N-14), 7.96; that for `Cc1cccc(C[C@@H]2NC(=O)[C@H](CC(=O)O)NC(=O)[C@H](Cc3ccc(OCC(=O)O)cc3)NC(=O)[C@H](CCN)NC(=O)CSC[C@@H](C(=O)N[C@@H](CCN)C(=O)NCCCCCCCCCCC(=O)O)NC(=O)[C@H](CO)NC(=O)[C@H](C(C)(C)O)NC(=O)[C@H](CC3CCCCC3)NC(=O)[C@H](Cc3cnc[nH]3)NC(=O)[C@@H](CC(C)C)NC(=O)[C@H](CCCN)NC(=O)[C@H](Cc3ccc(OCC(=O)O)cc3)NC(=O)[C@H](Cc3ccc(-c4ccccc4)cc3)NC(=O)[C@H](Cc3ccc(OCC(=O)O)cc3)NC2=O)c1` [Compound 3641] ({CH2CO}-[Dab]Y(Carboxymethyl)D[Phe(3-Me)]Y(Carboxymethyl)[Bip]Y(Carboxymethyl)[Orn][dL]H[Cha][Val(3-OH)]SC[Dab][Aun]-OH; thioether N-14), 8.13.
As for `Cc1cccc(C[C@@H]2NC(=O)[C@H](CC(=O)O)NC(=O)[C@H](Cc3ccc(OCC(=O)O)cc3)NC(=O)[C@H](CCN)NC(=O)CSC[C@@H](C(=O)N[C@@H](CC(N)=O)C(=O)NCCCCCCCCCCC(=O)O)NC(=O)[C@H](Cc3cnc[nH]3)NC(=O)[C@H](C(C)O)NC(=O)[C@H](CC3CCCCC3)NC(=O)[C@H](CCN)NC(=O)[C@@H](CC(C)C)NC(=O)[C@H](CCCN)NC(=O)[C@H](Cc3ccc(OCC(=O)O)cc3)NC(=O)[C@H](Cc3ccc(-c4ccccc4)cc3)NC(=O)[C@H](Cc3ccc(OCC(=O)O)cc3)NC2=O)c1` (stereo partly drawn) [Compound 3642] ({CH2CO}-[Dab]Y(Carboxymethyl)D[Phe(3-Me)]Y(Carboxymethyl)[Bip]Y(Carboxymethyl)[Orn][dL][Dab][Cha][Thr(3ξ)]HCN[Aun]-OH; thioether N-14), the negative-log IC50 (pIC50) is 8.17.
